In article PMC3201759 (Journal of proteome research, 2011) one finds IC50 data, which are given here for 3 compounds.

Each structure is given as a SMILES string. pIC50: −log10 of the molar value. Like-named read-outs stand apart in the source and are kept apart here.

Usually pIC50 stands for −log10 of the IC50, conventionally taken in molar units. Read a low pIC50 as a large IC50.

This test addresses T1, mouse Oat1 (mOat1; Oat1/Slc22a6) (Mus musculus, UniProt Q8VC69).
T1 sequence (Q8VC69 1-545): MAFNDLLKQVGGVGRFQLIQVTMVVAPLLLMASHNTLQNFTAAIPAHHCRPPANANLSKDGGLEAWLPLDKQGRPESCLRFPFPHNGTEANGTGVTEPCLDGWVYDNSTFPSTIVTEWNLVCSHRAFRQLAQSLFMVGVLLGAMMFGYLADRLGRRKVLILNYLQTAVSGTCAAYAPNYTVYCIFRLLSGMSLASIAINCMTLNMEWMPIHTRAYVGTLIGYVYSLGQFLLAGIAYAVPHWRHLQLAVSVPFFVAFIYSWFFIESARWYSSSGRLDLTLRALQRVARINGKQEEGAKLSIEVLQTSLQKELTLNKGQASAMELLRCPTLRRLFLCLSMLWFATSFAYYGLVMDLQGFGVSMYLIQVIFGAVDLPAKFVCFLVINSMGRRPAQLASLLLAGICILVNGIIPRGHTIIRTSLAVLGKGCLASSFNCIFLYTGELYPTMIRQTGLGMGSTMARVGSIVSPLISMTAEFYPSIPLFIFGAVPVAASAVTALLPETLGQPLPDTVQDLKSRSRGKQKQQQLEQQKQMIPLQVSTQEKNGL
The test is described as follows: inhibition of 6-carboxyfluorescein uptake, Xenopus oocytes. Format: cell-based.

Turning to `O=c1c2ncccc2[nH]c2c([N+](=O)[O-])c(O)c([N+](=O)[O-])c(O)c12` [CAS 5435-73-4], the pIC50 (30 μM 6-carboxyfluorescein tracer, 1 h incubation) was 4.66. For `Nc1ccccc1C(=O)C[C@H](N)C(=O)O` [kynurenine], the pIC50 is 4.92. Regarding `O=C(O)c1cc(O)c2cccc(O)c2n1` [xanthurenic acid], the negative logarithm of the IC50 (pIC50) was 4.30.
